Experiments:
[1] = test system: T. isochrysis galbana; experiment: Phytoplankton assay, Isochrysis galbana; type: cell-based
Procedure: The dinoflagellate prorocentrum minimum was cultured at the Chesapeake Biological Laboratory culture facility from in-house stocks grown up as a 1 liter culture in sterilized 16 ppt salinity filtered water fortified with f/2 nutrient media. The culture was diluted to 5 liters with filtered estuarine water 16 ppt salinity prior to the experiments. The approximate starting cell density was 2×10^6 cells per ml.
(§1) Each 600 ml glass beaker containing 400 ml dinoflagellate culture was allowed to grow under continuous fluorescent light following the exposure treatments. At daily intervals, samples were taken for cell counting and microscopical examination, extraction of chlorophyll pigments with acetone and for direct in-vivo chlorophyll fluorescence determination.
100 ml of each dinoflagellate culture treatment in triplicate were filtered through a 25 mm GFF filter under gentle vacuum. The filters were folded and placed in polypropylene centrifuge tubes and exactly 4 ml of HPLC grade acetone added. The samples were sonicated with a probe (Virsonic 50) for approximately 2 minutes to disrupt cells after which they are allowed to extract at 4° C. overnight in a refrigerator. After centrifuging for 5 minutes, the supernatant was transferred to a quartz fluorometer cell and the fluorescence recorded using a Hitachi F4500 scanning fluorescence detector. Excitation was fixed at 436 nm with a 10 nm slit and the emission is recorded at 660 nm with a 10 nm slit. The photomultiplier is operated at 700 V. Authentic chlorophyll a and b (Sigman Chemicals) were dissolved in HPLC grade acetone to calibrate the spectrofluorometer. Three point calibrations were performed in triplicate on a daily basis and relative fluorescence response converted into units of ug/l.
In-vivo fluorimetry with the Hitachi F4500 involves suspending the algal cells and transferring an aliquot to a disposable polycarbonate cuvette and recording the emission spectra from 600-720 nm with excitation fixed at 436 nm with a 10 nm slit width.
Direct cell counts were made with a compound binocular microscope and a hemacytometer counting triplicate samples in 80 squares.
(§2) End-points for quinone toxicity include cell motility, inhibition of cell division, inhibition of chlorophyll synthesis and chloroplate bleaching.
(§3) Assays for other species of phytoplankton including Chlorella sp. and Isochrysis galbana followed the above outlined procedures.

[2] = test system: Neochloris; experiment: Phytoplankton toxicity, Neochloris; type: cell-based
Procedure: as §1, §2, §3

[3] = test system: Zebra mussel larvae; experiment: Zebra mussel larvae bioassay; type: in vivo, Dreissena polymorpha
Procedure: Zebra mussel broodstock were maintained in natural well water with calcium and magnesium adjusted to a hardness level equivalent to approximately 25 mg/l hardness.
(§4) At 20° C., larvae remain in the free-swimming state for 30-40 days prior to settlement. Bioassays using early larval stages of this species are variants on standard oyster embryo bioassays. Assays are conducted at the embryo, trochophore and D-hinge stage.
The assays examined the toxicity of various quinones to the earliest life history stages, namely embryo to trochophore stage (2-17 hours); trochophore stage (2-17 hours); trochophore to D-hinge stage (17-48 hours); and embryo to D-hinge stage (2-48 hours).
Approximately 25 adults from broodstock (held at 10-12° C.) were cleaned of debris and transferred to 1500 ml glass beakers containing approximately 800 ml of culture water. Water temperature was rapidly raised to 30-32° C. by the addition of warm water. Mussels treated this way usually spawn within 30 minutes. If no spawning occurred within this time, a slurry made from ripe gonads homogenized in culture water is added.
A successful spawn yielded >50,000 eggs/female. To check for successful fertilization, zygotes were transferred to a Sedgewick-Rafter cell for counting and examination under a binocular microscope. Fertilized eggs were seen to be actively dividing and reached the 8-cell stage between 2-3 hours following fertilization. A better than 70% fertilization rate is considered indicative of viable experimental material.
Assays were conducted on at least 500 embryos/larvae in each of 4 replicates. A range of 5 test concentrations (in the ppm range) plus controls were used. A density of 10 embryos per ml were used for embryo assays, and for D-hinge larvae 2-larvae/ml were used. The tests were static non-renewal. Any assay lasting 24 hours or longer received food (cultured Neochloris @5×10^4 cells ml-1) at 24 hour intervals.
Following counting and adjustment of densities, embryo assays were started as early as 2 hours following fertilization by inoculating a known number of embryos into the test media. Late stages were held in culture water until inoculation. Survivors were counted using Sedgewick-Rafter cells, with adjustments for control mortality using Abbott's formula. Probit and Dunnett's test are used to obtain the LD50, Lowest Observed Effect Concentration (LOEC) and No Observed Effect Concentration (NOEC) (Toxcalc 5.0).

[4] = test system: E. affinis; experiment: Copepod assay (Eurytemora affinis); type: in vivo
Procedure: Cultures of Eurytemora affinis were continuously maintained in 15 seawater in a 8/16 hours light/dark regime fed every 48 hours on Isochrysis galbana. Toxicity bioassays are conducted on early instar naupliar larvae (chronic mortality/fecundity assay) or adults (acute LC50 assay).
Larvae were collected as follows. Cultures were filtered with a 200 m Nitex filter to separate the adults from earlier stages. Adults were then allowed to spawn for 48-72 hours in order to produce stage 1-3 naupliar larvae to be used for the assay. Assays were conducted on batches of 10 larvae per treatment (in triplicate). At 20° C., assays were continued for 12 days (shorter at higher temperatures). Endpoints were the percentage of F0 generation (present as adults) and total numbers of F1 generation (present as eggs or naupliar larvae). LC50 assays on adult copepods were conducted for 24 or 48 hours with percentage mortality as the end-point. All assays were conducted at 15 salinity on a 8 hour/16 hour light/dark regime.

[5] = test system: Artemia salina; experiment: Artemia salina toxicity; type: in vivo
Procedure: (§5) The effectiveness and toxicity levels of the compounds were evaluated using active plant and animal species. The various compounds were added to the water at controlled rates and amounts.

[6] = test system: Fish eggs; type: in vivo
[7] = test system: Minnow larvae; experiment: Fathead minnow acute assay (fish assay); type: in vivo, Pimephales promelas
Procedure: Fathead minnows (Pimephales promelas) from in-house laboratory cultures were used for these tests. Animals were cultured in natural well water with hardness adjusted to >50 ppm (CaCO3) equivalents. Fish were spawned in a 20 gal spawning tank containing PVC tubing as refuges. Newly hatched larvae were transferred to a holding tank at densities of 50-100/l until use. Brine shrimp nauplii (Artemia) were used as food.
The tests were static renewal. The test durations were 48 hours and 96 hours. The temperature was 20° C.±1° C. Light quality was ambient laboratory illumination. Light intensity was 10-20 E/m^2/sec (50-100 ft-c). The photoperiod was 16 hours of light and 8 hours of dark. The test container was 400 ml. Renewal of test solutions occurred at 48 hours. The age of test organisms was 1-14 days, with a 24 hour age range. There were 10 organisms per container. There were 3 replicates per concentration of individual quinones in the ppm range. There are 5 test concentrations plus controls (initial range-finding tests performed on logarithmic series). All tests were conducted within 5 hours of dissolving the test compound. Animals were fed Artemia nauplii prior to the test and 2 hours prior to the 48 hour test solution renewal. […]
The test objectives are to determine LC50, LOEC and NOEC. […] Data are analyzed using Toxcalc 5.0.

[8] = test system: Oyster larvae; experiment: Oyster larvae toxicity; type: in vivo
Procedure: as §5, §4

[9] = test system: Banana snails (Bulimulis alternata); experiment: Banana snail bioassay on treated lettuce leaves; type: in vivo; details: for Avoidance of treated leaves: lettuce leaves sprayed with 5, 10 and 20 mg/l aqueous solution
Procedure: Banana snails (Bulimulis alternata) were obtained from a commercial supplier and were fed lettuce leaves until the start of the bioassay.
Ten snails were placed in covered 1 liter glass beakers, on approximately 50 cm^2 lettuce leaves which had been sprayed with a fine mist of an aqueous solution of 2,3-dimethoxy-5-methyl-1,4-benzoquinone at three concentrations: 5, 10 and 20 mg/l. The treated leaves were allowed to dry before exposure to the snails. 10 snails were placed on approximately 50 cm^2 of untreated lettuce leaf as a control. Treatments and controls were maintained at approximately 20° C. in the dark.
Others climbed up the walls of the beakers away from the leaves. […] In contrast, the control group of snails consumed more than 10% of the leaf surface area after 24 hours and continued to feed and had consumed about 20% of the leaf after 48 hours.

SMILES | Toxicity Data: Toxic at (concentration) [1] | Toxicity Data: time to toxic effect at 5 ppm [4] | Toxicity Data: Toxic at (concentration) [5] | further results
CC1=CC(=O)c2c(O)cccc2C1=O [compound 1, 2-methyl-5-hydroxy-1,4-napthoquinone] | Toxic at 50 ppb | 5 ppm < 10 min | Toxic at 5 ppm | Toxicity Data: Toxic at (concentration) [2]: Toxic at 500 ppm; Toxicity Data: Toxic at (concentration) ([3]; Zebra larvae): Toxic at 200 ppb; Toxicity Data: Kills & hatch prevention @ (concentration) [6]: prevention @ 1 ppm; Toxicity Data: Toxic at (concentration) [7]: Toxic at 1 ppm
CC1=CC(=O)c2ccccc2C1=O [compound 2, 2-methyl-1,4-naphthalenedione (Vitamin K3)] | Toxic at 500 ppb | 5 ppm < 15 min | Toxic at 5 ppm | Toxicity Data: Toxic at (concentration) ([3]; Zebra mussel larvae): Toxic at 500 ppm; Toxicity Data: Kills & hatch prevention @ (concentration) [6]: prevention @ 1 ppm; Toxicity Data: toxic concentration [8]: 1 ppm
CC1(S(=O)(=O)[O-])CC(=O)c2ccccc2C1=O.[Na+] (stereo not shown) [compound 3, 2-methyl-2-sodium metabisulfite-1,4-naphthalenedione] | Toxic at 500 ppb | 5 ppm < 15 min | Toxic at 5 ppm | Toxicity Data: Toxic at (concentration) ([3]; Zebra mussel larvae): Toxic at 1 ppm; Toxicity Data: Kills & hatch prevention @ (concentration) [6]: prevention @ 1 ppm; Toxicity Data: toxic concentration [8]: 500 ppb
O=C1c2ccccc2Cc2ccccc21 [compound 4, Anthrone] | Toxic at 2 ppm | – | – | –
O=C1c2ccccc2C(=O)c2c1ccc(O)c2O [compound 5, 1,2-dihydroxyanthraquinone] | Toxic at 1 ppm | – | Toxic at 5 ppm | Toxicity Data: Toxic at (concentration) [4]: Toxic at 1 ppm
Cc1cc(O)c2c(c1)C(=O)c1cccc(O)c1C2=O [compound 6, 3-methyl-1,8-dihydroxyanthraquinone] | Toxic at 1 ppm | – | – | Toxicity Data: Toxic at (concentration) ([3]; Zebra mussel larvae): Toxic at 1 ppm
O=C(O)c1ccc2c(c1)C(=O)c1ccccc1C2=O [compound 7, anthraquinone-2-carboxylic acid] | Toxic at 1 ppm | 5 ppm < 5 hours | – | –
O=C1c2ccccc2C(=O)c2c(Cl)cccc21 [compound 8, 1-chloroanthraquinone] | Toxic at 500 ppb | 5 ppm < 5 hours | – | Toxicity Data: Toxic at (concentration) [2]: Toxic at 500 ppb
Cc1ccc2c(c1)C(=O)c1ccccc1C2=O [compound 9, 2-methyl-anthraquinone] | Toxic at 500 ppb | 5 ppm < 45 min | Toxic at 5 ppm | Toxicity Data: Toxic at (concentration) [2]: Toxic 1 ppm; Toxicity Data: Toxic at (concentration) ([3]; Zebra mussel larvae): Toxic at 200 ppm
O=C1C=CC(=O)c2ccccc21 [compound 10, 1,4-naphthalenedione] | Toxic at 1 ppm | 5 ppm < 10 min | – | Toxicity Data: toxic concentration [8]: Toxic at 5 ppm
O=C1c2ccccc2C(=O)c2ccccc21 [compound 11, anthraquinone] | – | 5 ppm < 4 hours | – | –
O=C1C=CC(=O)C=C1 [compound 12, 1,4-benzoquinone] | Toxic at 500 ppb | – | – | Toxicity Data: Control hatch at (concentration) [6]: at 1 ppm
CC1=CC(=O)C=CC1=O [compound 13, methyl-1,4-benzoquinone (toluquinone)] | Toxic at 500 ppb | – | – | –
COC1=C(OC)C(=O)C(C)=CC1=O [compound 14, 2,3-methoxy-5-methyl-1,4-benzoquinone] | Toxic at 5 ppm | – | – | Avoidance of treated leaves ([9]; after 48 hours): avoidance behavior was again observed; Avoidance of treated leaves ([9]; all treatments, 24 hours): significant avoidance relative to control; Feeding activity ([9]; several snails of the treatment group, leaves completely intact): no feeding activity at all

Reference: patent US7348363B2, “Method of controlling zoological and aquatic plant growth” (priority 2000, dated 2008)
